Patent publication US20090137565A1, “Method for treatment of movement disorders” (The Trustees of Columbia University in the City of New York, priority 2004, published 2009)
“Also recorded” adds a separate entry of the source.

What was measured:
[1] = Five-patient trial: tolerability of Xyrem; format: in vivo, human
Experimental: Side effects were defined as either minor or serious (leading to hospitalization) using good clinical practice standards (www.who.int/medicines/library/par/ggcp/GCPGuidePharmatrials), and patients were asked to report side effects at each visit. After initial examination and videotaping, patients were given 1 gm of sodium oxybate by mouth (2 ml of the standard 0.5 gm/ml solution dissolved in 60 ml of water). One hour later, the senior author repeated the examination and videotaping. […] After two weeks taking 2 gm twice daily, the procedure was repeated after a 3 gm office dose, and finally two weeks after receiving 3 gm twice daily, the procedure was repeated after a 4 gm office dose. The maximum dose allowed in the trial was 4 gm twice daily. Patients and the senior author determined at each visit whether or not to proceed to the next dose level, based principally on their ability to tolerate the most recent dose regimen. After deciding on a maximum tolerated dose, patients received a dose in the office 0.5 gm less and the examination was videotaped.

[2] = test system: medication-refractory, ethanol-responsive myoclonus (PHM, MD, PME); assay: Twenty-patient open-label trial of sodium oxybate, blinded UMRS (myoclonus patients); format: in vivo, human; conditions: for Stim-sens. myoclonus score: dose 0 score 5.8; for Functional performance score: dose 0 score 12.9; for Action myoclonus score: dose 0 score 45.3; for Myoclonus at rest score: dose 0 score 7.4
From the text: Twenty patients age 18 or older were recruited from a clinical practice at the Movement Disorders Division of Columbia University Medical Center. Eligible patients with medication-refractory, ethanol-responsive myoclonus (6 PHM, 3 MD, 2 PME) or ET (9 patients) (Table 1) were offered enrollment from February 2004 to March 2005. The medical center's institutional review board approved the protocol, and written informed consent was obtained from all participants. All had myoclonus or ET that improved (by self-report) with ingestion of ethanol. All patients were medication-refractory, defined as obtaining inadequate benefit from best medical treatment or being unable to tolerate treatment. The dose and timing of other medications were kept constant before and during the trial.
(§1) Twelve men and 8 women enrolled. Results from patients #6, and #s 1, 2, 7, 12, and 13 were reported previously. Frucht, S. J., et al. Mov Disord 20:745-51 (2005); Frucht, S. J., et al. Mov Disord 20:1330-7 (2005). Mean age/symptom duration was 43.9 yrs/12.3 yrs (myoclonus) and 71.2 yrs/26.7 yrs (ET). Patients with myoclonus were examined and videotaped at each visit using the Unified Myoclonus Rating Scale (UMRS), and patients with ET were examined and videotaped using the modified Washington Heights Inwood Genetic Essential Tremor Rating Scale (WHIGET; Appendix 1). Frucht, S. J., et al. Mov Disord 20:1330-7 (2005). After initial baseline examination and videotaping, patients took 1 gm of sodium oxybate by mouth (2 ml of the standard 0.5 gm/ml solution dissolved in 60 ml of water), and one hour later the videotaped examination was repeated. Patients were maintained on a dose of 1 gm T.I.D. (taken before meals) until their next office visit two weeks later, when the examination and videotaping were repeated one hour after receiving 1.5 gm of sodium oxybate. Subsequent visits and dose titrations at two-week intervals were repeated until the maximum dose was reached (3 gm T.I.D), patients were satisfied with the results of treatment, or until they developed side effects that they viewed as troublesome. Dosing for patients #1, 2, 6, 7, 12, and 13 was slightly different (1 gm BID, with dose increments of 2 gm to maximum dose of 4 gm BID), but office visits and videotaping protocol were otherwise identical.
The entire videotape segments and writing samples from each visit were copied and randomly ordered, and identifying features that might reveal trial order or drug dose were removed. A blinded movement disorder neurologist scored each videotape segment using the UMRS or the WHIGET. Sub-scores for each visit were calculated as described previously. Frucht, S. J., et al. Mov Disord 20:1330-7 (2005). Based on data from the first two ET cases, and assuming alpha=0.05, power=80%, and a 25% reduction in post-treatment tremor severity, we calculated that eight ET cases were required. A similar number of myoclonus patients would provide >80% power to detect a 25% reduction in the severity of post-treatment action myoclonus. Paired t tests were performed for scores pre- and post-treatment.

[3] = Twenty-patient trial: side effects and tolerability; format: in vivo, human; conditions: twenty patients
From the text: as §1

[4] = test system: alcohol-responsive myoclonus with dystonia; conditions: single patient, recently reported; cited from earlier work
[5] = patient 4, listed as Xyrem ®, monosodium salt

O=C([O-])CCCO.[Na+] [GHB, 4-hydroxybutanoic acid monosodium salt]
common side effects not requiring dose reduction ([1]; five patients): Transient headache and dizziness | Dose @ D-L-SE ([1]; patient 1): 3 gm | D-L-SE (dose-limiting side effect) ([1]; patient 1, disinhibition printed as mild, listed as Xyrem ®, monosodium salt): sedation and mild; also recorded: disinhibition | SER SE (serious side effect, leading to hospitalization) ([1]; patient 1, judged not likely related to study drug): asthma | Dose @ D-L-SE ([1]; patient 2): 3 gm | MILD SE ([1]; patient 2): Ø | SER SE ([1]; patient 2): Ø | D-L-SE (dose-limiting side effect) ([1]; patient 2, listed as Xyrem ®, monosodium salt): emotional lability | D-L-SE (dose-limiting side effect) ([1]; patient 3): slight sedation | Dose @ D-L-SE ([1]; patient 3): 4 gm | SER SE ([1]; patient 3): Ø | MILD SE ([1]; patient 3, listed as Xyrem ®, monosodium salt): HA (1 gm); also recorded: dizzy (1 gm) | Dose @ D-L-SE ([1]; patient 4): 2 gm | SER SE ([1]; patient 4): Ø | D-L-SE (dose-limiting side effect) [1, 5]: emotional lability | MILD SE [1, 5]: HA (1 gm); also recorded: dizzy (2 gm) | D-L-SE (dose-limiting side effect) ([1]; patient 5): slight sedation | Dose @ D-L-SE ([1]; patient 5): 2 gm | MILD SE ([1]; patient 5): Ø | SER SE ([1]; patient 5): Ø | Stim-sens. myoclonus score ([2]; 1 gm, p 0.01**): 3.2 (0.01)** | Functional performance score ([2]; 1 gm, p 0.044*): 11.0 (0.044)* | Action myoclonus score ([2]; 1 gm, p 0.047*): 33.4 (0.047)* | Functional performance score ([2]; 1.5 gm, p 0.007*): 9.6 (0.007)* | Stim-sens. myoclonus score ([2]; 1.5 gm, p 0.11): 3.2 (0.11) | Action myoclonus score ([2]; 1.5 gm, p 0.122): 26.8 (0.122) | Myoclonus at rest score ([2]; 1.5 gm, p 0.247): 1.2 (0.247) | Stim-sens. myoclonus score ([2]; 2 gm, p 0.001**): 2.8 (0.001)** | Action myoclonus score ([2]; 2 gm, p 0.005*): 30.9 (0.005)* | Myoclonus at rest score ([2]; 2 gm, p 0.047*): 3.6 (0.047)* | Functional performance score ([2]; 2 gm, p <0.001**): 6.0 (<0.001)** | Functional performance score ([2]; 2.5 gm, p 0.002**): 7.4 (0.002)** | Action myoclonus score ([2]; 2.5 gm, p 0.046*): 26.2 (0.046)* | Myoclonus at rest score ([2]; 2.5 gm, p 0.055): 0.6 (0.055) | Stim-sens. myoclonus score ([2]; 2.5 gm, p <0.001**): 1.4 (<0.001)** | Stim-sens. myoclonus score ([2]; 3.0 gm, p 0.02*): 1.0 (0.02)* | Functional performance score ([2]; 3.0 gm, p 0.059): 6.9 (0.059) | Action myoclonus score ([2]; 3.0 gm, p 0.064): 33.0 (0.064) | Myoclonus at rest score ([2]; 3.0 gm, p 0.129): 0.75 (0.129) | Myoclonus at rest score ([2]; individ. dose 1 gm, p 0.137 vs pre-treatment): 4.9 (0.137) | dose of maximal improvement ([2]; myoclonus measures): 2.5 gm | Myoclonus at rest ([2]; patient #3 (MD), after receiving 3 mg (so in the source)): disappeared | stimulus-sensitive myoclonus to sound and pinprick ([2]; patient #4 (PME), after 3 gm): only stimulus-sensitive myoclonus of the right hand remained | action myoclonus on finger-to-nose ([2]; patient #6 (PHM), standing unassisted now possible): significantly improved | Myoclonus at rest ([2]; patient #11 (PHM), after receiving 2.5 mg (so in the source)): disappeared | functional performance, using a soupspoon ([2]; patients #9 (PHM) and #5 (PME)): improved | dose titration limited by ataxia [3]: 20% | dose titration limited by sedation [3]: 60% | mild, transient side effect: dizziness [3]: 35% | mild, transient side effect: emotionality [3]: 20% | mild, transient side effect: headache [3]: 20% | mild, transient side effect: nausea [3]: 10% | tolerability of daytime dosing [3]: acceptable | effect on myoclonus [4]: improved myoclonus
